Test results taken from article PMC9697446 (International Journal of Molecular Sciences, 2022).
Where two headings read alike, the source gives them in different places.

Assays:
EeAChE PAS = molecular target: T1, EeAChE PAS (Electrophorus electricus, UniProt O42275); assay: biochemical; type: binding; settings: for inhibition at 3 µM: read-out: PI Displacement, 3 µM; for inhibition at 20 µM: read-out: PI Displacement, 20 µM
T1 construct: purchased Sigma-Aldrich type VI-S
Protocol: (§1) PIand donepezil were purchased from Sigma-Aldrich. […] As the source of the enzyme, electric eel (Elecrophorus electricus) AChE (EeAChE, type VI-S, lyophilized powder, Sigma-Aldrich, Saint Louis, MO, USA) was used. The applicability of this enzyme was shown earlier
To determine the percentage of displacement of PI from the EeAChE PAS, EeAChE (with a final concentration of 7 μM) was incubated with the test compound at a concentration of 3 and 20 μM in 1 mM Tris-HCl buffer pH 8.0, 25 °C for 15 min. Next, PIsolution (with a final concentration of 8 μM) was added, the samples were incubated for 15 min, and the fluorescence spectrum (530 nm (exc.) and 600 nm (emiss.)) was taken. Donepezil and decamethonium were used as reference compounds. The blank contained PI of the same concentration in 1 mM Tris-HCl buffer pH 8.0. The measurements were carried out in triplicate on a FLUOStar Optima microplate reader).
The percentage of displacement of PIfrom the peripheral anionic site of AChE was calculated using the following formula:% Displacement = 100 − (IFAChE+Propidium+inhibitor/IFAChE+Propidium) × 100,(1) where IFAChE+Propidium is the fluorescence intensity of the propidium associated with AChE in the absence of the test compound (taken as 100%) and IFAChE+Propidium+inhibitor is the fluorescence intensity of the propidium associated with AChE in the presence of the test compound.

[1] = Oxygen radical absorbance capacity assay (ORAC-FL); settings: Trolox equivalent, Trolox = 1; means ± SEM (n = 3)
Source text: The method is based on the measurement of the fluorescence intensity characterizing the degree of destruction of the fluorescence probe under the action of peroxyl radicals.
The peroxyl radical scavenging capacity of the test compounds was characterized in terms of the Trolox equivalent (TE), which is equal to the ratio of the Trolox concentration to the concentration of a test compound when they show equal fluorescence intensities in the assay. The peroxyl radical scavenging capacity of Trolox was set as 1 [67, 68].
2,2´-Azobis(amidinopropane) dihydrochloride (AAPH), (±)-6-hydroxy-2,5,7,8-tetramethylchroman-2-carboxylic acid (Trolox), and fluorescein (FL) were purchased from Sigma-Aldrich. The reaction was carried out at 37 °C in 75 mM K,Na phosphate buffer (pH 7.4), and the final reaction mixture was 200 µL. The test compounds and the Trolox standard were dissolved in DMSO to 10 mM and further diluted in a 75 mM K,Na phosphate buffer (pH 7.4). The final concentrations were 0.1–1 µM for the test compounds and 1–6 µM for the Trolox. The blank was composed of 20 µL of a 75 mM K,Na phosphate buffer (pH 7.4) containing 20% (v/v) DMSO, 120 µL of FL and 60 µL of AAPH, and it was added in each assay. The antioxidant (20 µL) and FL (120 µL, final concentration: 70 nM) solutions were placed in a black 96-well microplate and were preincubated for 15 min at 37 °C. A solution of AAPH (60 µL, final concentration: 12 mM) was then added rapidly using a multichannel pipette. The microplate was immediately placed in the reader, and the fluorescence was recorded every minute for 100 min. The microplate was automatically shaken prior to each reading. The Trolox standard curve was also obtained in each assay. All reactions were carried out in triplicate, and at least three different assays were performed for each sample.
The antioxidant curves (fluorescence vs. time) were first normalized to the curve of the blank (without the antioxidant) corresponding to the same assay, and the area under the fluorescence decay curve (AUC) was calculated. The net AUC corresponding to a sample was calculated by subtracting the AUC corresponding to the blank. Regression equations were calculated by plotting the net AUC against the antioxidant concentration. The ORAC Tolox equivalent value (TE) was obtained by dividing the slope of the latter curve by the slope of the Trolox curve obtained in the same assay. The ability of Trolox to scavenge the peroxyl radical was equal to 1 [64, 65]. […] The data are expressed as means ± SEM.

[2] = test system: Fe3+-induced LP in rat brain homogenate; assay: Fe3+-induced lipid peroxidation in rat brain homogenate; type: biochemical; settings: for IC50: LP induced by 0.5 mM Fe3+ in rat brain homogenate, mean ± SD, read-out: Inhibition of LP IC50; for Pro-oxidant activity in rat brain homogenate: 10 nM to 30 µM
Protocol: The influence of MB and its conjugates with indole derivatives on Fe^3+-induced lipid peroxidation (LP) in rat brain homogenate was studied over a broad concentration range (from 10 nM to 30 µM).
On the day of the experiment, adult Wistar male rats that fasted overnight were euthanized in a CO2 chamber, followed by decapitation. The procedure was in compliance with the Guidelines for Animal Experiments at the Institute of Physiologically Active Compounds of the Russian Academy of Sciences. The brains were rapidly removed and homogenized in 0.12 M HEPES/0.15M NaCl, pH 7.4 buffer (HBS) ([…]) and used immediately for the assay.
The protein concentrations in rat brain homogenate (RBH) were determined by the biuret assay using bovine serum albumin as the standard.
The effect of the compounds on LP of the RBH was studied at […] in 0.25 mL of RBH (2 mg of protein·mL^−1) in the presence of the compounds or the vehicle (DMSO). Lipid peroxidation was induced by Fe^3+ (0.5 mM Fe(NH4)(SO4)2) as an oxidant.
The reaction mixture was incubated for 30 min at 37 °C, then quenched by adding 0.4 mL of quench medium containing 250 mM HCl and 15% (w/v) trichloroacetic acid. The samples were then centrifuged for 10 min at 10,000× g, and 75 µL of the supernatant was transferred to a 96-well plate. Next, 75 µL of 0.8% (w/v) 2-thiobarbituric acid (TBA) was added. The plate was then sealed, heated at 95 °C for 15 min, cooled to 4 °C, and the absorbance at 530–620 nm was measured using a Wallac Victor 3 1420 Multilabel Counter (Perkin Elmer, Turku, Finland).
All the experiments were performed as four independent runs with different brain homogenate preparations and three repeated probes in each run. The average results for each run were normalized between the positive control with the vehicle and Fe^3+ and negative control with only the vehicle. They were presented as the IC50 ± SD values for the antioxidant activities of the compounds which were calculated using GraphPad Prism 7.00 software (San Diego, CA, USA).

equine serum BChE = molecular target: T2, equine serum BChE (Equus caballus, UniProt P81908); assay: biochemical; settings: n = 3; for IC50: IC50 ± SEM
T2 construct: the equine serum BChE, and the porcine liver CES; purchased Sigma-Aldrich; host or cells: equine serum
T2 sequence (P81908 whole entry): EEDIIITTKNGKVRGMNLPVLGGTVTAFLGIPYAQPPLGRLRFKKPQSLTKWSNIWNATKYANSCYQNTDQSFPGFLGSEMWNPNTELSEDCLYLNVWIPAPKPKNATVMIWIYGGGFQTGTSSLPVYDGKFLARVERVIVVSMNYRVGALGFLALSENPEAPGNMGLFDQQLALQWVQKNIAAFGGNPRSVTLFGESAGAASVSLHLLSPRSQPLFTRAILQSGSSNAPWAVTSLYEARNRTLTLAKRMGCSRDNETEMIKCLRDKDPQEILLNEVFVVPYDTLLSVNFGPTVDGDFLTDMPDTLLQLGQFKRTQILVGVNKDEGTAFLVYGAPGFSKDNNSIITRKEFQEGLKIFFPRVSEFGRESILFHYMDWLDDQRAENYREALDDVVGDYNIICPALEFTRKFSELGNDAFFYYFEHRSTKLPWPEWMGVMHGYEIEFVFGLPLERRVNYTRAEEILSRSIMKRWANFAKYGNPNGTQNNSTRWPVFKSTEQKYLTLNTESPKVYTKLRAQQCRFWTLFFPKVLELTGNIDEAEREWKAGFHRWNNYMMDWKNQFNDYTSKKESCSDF
Protocol: (§2) The esterase profile was estimated using the human erythrocyteAChE, the equine serum BChE, and the porcine liver CES.
(§3) Human erythrocyte AChE, equine serum BChE, porcine liver CES, acetylthiocholine iodide (ATCh), butyrylthiocholine iodide (BTCh), 5,5′-dithio-bis-(2-nitrobenzoic acid) (DTNB), 4-nitrophenol acetate (4-NPA), and BNPP were purchased from Sigma-Aldrich (St. Louis, MO, USA).
(§4) AChE and BChE activities were measured via the Ellman method. The assay solution consisted of 0.1 M K/Na phosphate buffer pH 7.5, 25 °C with the addition of 0.33 mM DTNB, 0.02 unit/mL of AChE or BChE and 1 mM of substrate (ATCh or BTCh, respectively). The assays were carried out with a reagent blank containing all components (except AChE orBChE) in order to account for the non-enzymatic hydrolysis of the substrate. In addition, an enzyme blank was included that contained all components except substrate to account for non-substrate sulfhydryl groups.
(§5) The test compounds were dissolved in DMSO, and the incubation mixture contained 2% (v/v) of the solvent. Enzyme inhibition was first assessed at a single concentration of 20 µM for each compound after a 5 min incubation at 25 °C in three separate experiments. […] The test compounds were added to the assay solution and preincubated at 25 °C with the enzymes for 5 min, followed by the addition of substrate. A parallel control was made for the assay solution with no inhibitor. Measurements were performed with a FLUOStar Optima microplate reader (BMG Labtech, Ortenberg, Germany). Each experiment was performed in triplicate. The results were expressed as the mean ± SEM. The reaction rates in the presence and absence of the inhibitor were compared, and the percent of residual enzyme activity due to the presence of test compounds was calculated.

human erythrocyte AChE = molecular target: T3, human erythrocyte AChE (Homo sapiens, UniProt P22303); assay: biochemical; settings: IC50 ± SEM, n = 3
T3 construct: The esterase profile was estimated using the human erythrocyteAChE; purchased Sigma-Aldrich; host or cells: human erythrocytes
T3 sequence (P22303 32-617 isoform P22303-2 limits assumed): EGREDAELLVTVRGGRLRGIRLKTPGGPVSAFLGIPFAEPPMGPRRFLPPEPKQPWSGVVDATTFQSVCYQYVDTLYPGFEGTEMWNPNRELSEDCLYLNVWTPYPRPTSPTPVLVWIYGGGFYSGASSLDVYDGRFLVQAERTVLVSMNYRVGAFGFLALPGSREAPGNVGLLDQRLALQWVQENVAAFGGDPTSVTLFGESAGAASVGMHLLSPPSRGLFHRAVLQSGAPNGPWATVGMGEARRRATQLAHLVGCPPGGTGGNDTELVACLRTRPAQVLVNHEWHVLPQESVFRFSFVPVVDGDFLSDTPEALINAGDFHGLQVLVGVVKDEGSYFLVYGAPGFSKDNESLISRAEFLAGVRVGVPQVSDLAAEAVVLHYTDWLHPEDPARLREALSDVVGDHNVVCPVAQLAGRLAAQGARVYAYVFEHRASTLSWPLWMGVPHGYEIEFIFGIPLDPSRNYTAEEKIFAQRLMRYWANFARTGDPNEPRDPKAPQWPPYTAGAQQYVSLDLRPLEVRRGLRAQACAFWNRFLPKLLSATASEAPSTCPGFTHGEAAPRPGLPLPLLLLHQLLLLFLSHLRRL
Protocol: as §2, §3, §4, §5

EeAChE = molecular target: T4, EeAChE (Electrophorus electricus, UniProt O42275); assay: biochemical; settings: means ± SEM (n = 3); read-out: EeAChE Inhibition, IC50
T4 construct: purchased Sigma-Aldrich type VI-S
T4 sequence (O42275 24-633): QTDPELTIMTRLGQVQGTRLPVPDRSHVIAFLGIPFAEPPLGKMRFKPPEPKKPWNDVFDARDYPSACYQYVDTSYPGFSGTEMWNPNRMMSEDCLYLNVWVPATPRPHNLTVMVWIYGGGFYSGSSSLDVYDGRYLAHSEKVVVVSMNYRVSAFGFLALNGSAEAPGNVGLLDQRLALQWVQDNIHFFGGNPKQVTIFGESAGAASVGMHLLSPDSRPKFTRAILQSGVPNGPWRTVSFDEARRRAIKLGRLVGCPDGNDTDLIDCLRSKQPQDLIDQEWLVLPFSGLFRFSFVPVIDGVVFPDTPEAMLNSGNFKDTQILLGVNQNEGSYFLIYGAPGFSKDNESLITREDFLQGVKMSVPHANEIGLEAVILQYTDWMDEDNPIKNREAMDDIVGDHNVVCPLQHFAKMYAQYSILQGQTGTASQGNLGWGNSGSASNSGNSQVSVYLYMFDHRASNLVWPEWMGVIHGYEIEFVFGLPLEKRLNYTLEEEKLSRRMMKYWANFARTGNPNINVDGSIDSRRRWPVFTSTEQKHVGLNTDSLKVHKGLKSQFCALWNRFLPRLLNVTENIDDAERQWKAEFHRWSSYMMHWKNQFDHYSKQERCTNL
Protocol: We selected AChE from electric eels (Electrophorus electricus) for consistency with our other reports and because of its purity, specific activity, and lower cost compared to human AChE [64].
as §4, §5, §1

[3] = compound 3 µM, EeAChE 7 µM, PI 8 µM, means ± SEM (n = 3)
[4] = compound 20 µM, EeAChE 7 µM, PI 8 µM, means ± SEM (n = 3)

T1 sequence (O42275 24-633): as above

SMILES	inhibition at 3 µM (EeAChE PAS; [3])	inhibition at 20 µM (EeAChE PAS; [4])	ORAC, TE Value [1]	IC50 [2]	IC50 (equine serum BChE)	IC50 (human erythrocyte AChE)	IC50 (EeAChE)	inhibition at 20 µM (equine serum BChE; 20 µM, ± SEM)	inhibition at 3 µM (EeAChE PAS)	inhibition at 20 µM (EeAChE PAS)	Pro-oxidant activity in rat brain homogenate [2]	PI Displacement, 3 µM (EeAChE PAS; [3])	PI Displacement, 20 µM (EeAChE PAS; [4])
CN(C)c1ccc2c(c1)Sc1cc(N(C)C)ccc1N2C(=O)CCn1c2c(c3ccccc31)CCC2 [Compound 4a]	12 ± 0.5%	20.9 ± 0.8%	6.8±0.4	1240 ± 720 nM	42130 ± 410 nM	11100 ± 690 nM	2350 ± 230 nM	–	–	–	–	–	–
CN(C)c1ccc2c(c1)Sc1cc(N(C)C)ccc1N2C(=O)CCn1c2c(c3ccccc31)CCCC2 [Compound 4b]	12.6 ± 0.7%	27.9 ± 1.1%	8.6 ± 0.1	1120 ± 630 nM	48700 ± 2090 nM	12400 ± 1510 nM	2420 ± 180 nM	–	–	–	–	–	–
Cc1ccc2c(c1)c1c(n2CCC(=O)N2c3ccc(N(C)C)cc3Sc3cc(N(C)C)ccc32)CCCC1 [Compound 4c]	14.9 ± 1.1%	31.8 ± 0.9%	5.5 ± 0.4	780 ± 350 nM	41400 ± 1710 nM	4390 ± 260 nM	1220 ± 10 nM	–	–	–	–	–	–
COc1ccc2c(c1)c1c(n2CCC(=O)N2c3ccc(N(C)C)cc3Sc3cc(N(C)C)ccc32)CCCC1 [Compound 4d]	13.4 ± 0.9%	28 ± 1.5%	4.8 ± 0.3	1120 ± 620 nM	52100 ± 2700 nM	10500 ± 890 nM	2250 ± 70 nM	–	–	–	–	–	–
COc1ccc2c(c1)c1c(n2CCC(=O)N2c3ccc(N(C)C)cc3Sc3cc(N(C)C)ccc32)CCC(C)C1 (centres unmarked) [Compound 4e]	14.8 ± 0.7%	23 ± 1.3%	13.3 ± 1.3	500 ± 360 nM	–	9810 ± 180 nM	1920 ± 140 nM	22.9 ± 2%	–	–	–	–	–
CN(C)c1ccc2c(c1)Sc1cc(N(C)C)ccc1N2C(=O)CCn1c2c(c3cc(F)ccc31)CCCC2 [Compound 4f]	14.4 ± 0.8%	31.9 ± 1.4%	5.6 ± 0.4	600 ± 320 nM	18400 ± 1520 nM	6570 ± 570 nM	1110 ± 120 nM	–	–	–	–	–	–
CN(C)c1ccc2c(c1)Sc1cc(N(C)C)ccc1N2C(=O)CCn1c2c(c3cc(OC(F)(F)F)ccc31)CCCC2 [Compound 4h]	19.1 ± 1.1%	33.8 ± 0.4%	5.8 ± 0.5	460 ± 320 nM	47600 ± 4590 nM	6890 ± 90 nM	890 ± 90 nM	–	–	–	–	–	–
CC1CCc2c(c3cc(OC(F)(F)F)ccc3n2CCC(=O)N2c3ccc(N(C)C)cc3Sc3cc(N(C)C)ccc32)C1 (centres unmarked) [Compound 4i]	20.4 ± 1.8%	32.5 ± 0.5%	5.1 ± 0.4	580 ± 260 nM	6070 ± 580 nM	1940 ± 90 nM	410 ± 30 nM	–	–	–	–	–	–
CN(C)c1ccc2c(c1)Sc1cc(N(C)C)ccc1N2C(=O)CCn1c2c(c3ccccc31)CCCCC2 [Compound 4j]	10.3 ± 0.9%	23.8 ± 1.1%	12.4 ± 0.2	620 ± 370 nM	9980 ± 860 nM	10700 ± 670 nM	2700 ± 90 nM	–	–	–	–	–	–
Cc1ccc2c(c1)c1c(n2CCC(=O)N2c3ccc(N(C)C)cc3Sc3cc(N(C)C)ccc32)CCCCC1 [Compound 4k]	12.1 ± 0.8%	15.8 ± 0.7%	13.4 ± 1.3	820 ± 680 nM	22200 ± 920 nM	12900 ± 530 nM	4120 ± 370 nM	–	–	–	–	–	–
CN(C)c1ccc2c(c1)Sc1cc(N(C)C)ccc1N2C(=O)CCn1c2c(c3ccccc31)CCCCCC2 [Compound 4m]	17.3 ± 1.2%	37.4 ± 0.8%	15.7 ± 1.5	1520 ± 790 nM	21700 ± 510 nM	2980 ± 100 nM	570 ± 20 nM	–	–	–	–	–	–
Cc1ccc2c(c1)c1c(n2CCC(=O)N2c3ccc(N(C)C)cc3Sc3cc(N(C)C)ccc32)CCCCCC1 [Compound 4n]	16.7 ± 1.2%	28.3 ± 1.2%	10.9 ± 0.6	930 ± 680 nM	15600 ± 1130 nM	6260 ± 10 nM	950 ± 70 nM	–	–	–	–	–	–
CN(C)c1ccc2nc3ccc(=[N+](C)C)cc-3sc2c1 [MB, Methylene blue, reference compound]	–	–	not detectable	1900 ± 500 nM	11100 ± 120 nM	–	–	–	20.9 ± 1.9%	40.8 ± 3.7%	no pro-oxidant activity	–	–
CN(C)c1ccc2c(c1)Sc1cc(N(C)C)ccc1N2 [MBH2, reference compound]	–	–	not detectable	530 ± 230 nM	10100 ± 160 nM	1760 ± 90 nM	280 ± 20 nM	–	–	–	no pro-oxidant activity	17.7 ± 1.8%	36.9 ± 3.3%
